The results in this text go back to US5929074A, “Pyridazinone derivatives with pharmaceutical activity” (Nissan Chemical Industries, Ltd., priority 1993, dated 1999).

Experiment [1] concerns guinea-pig trachea. Put plainly: Bronchodilating effect in vitro, Method 1-1: relaxation of LTD4-contracted guinea-pig trachea strips. The experiment is classed as cell-based. The following applies: Method 1-1, LTD4 (30 nM) contracted trachea, indomethacin 5 μM, read-out: EC50 (concentration to achieve 50% relaxation relative to relaxation by 1 mM aminophylline). As to the method: (§1) A test sample drug was dissolved in 100% dimethylsulfoxide (DMSO, Wako Junyaku) and diluted for use. Leukotriene D4 (LTD4, Ultrafine) and isoproterenol (Isoproterenol, Sigma) were diluted with distilled water. Indomethacin (Indo, Sigma) was dissolved in 100% ethanol (EtOH, Komune Kagaku). Aminophylline (AP, Sigma), histamine dihydrochloride (His, Wako Junyaku) was dissolved in distilled water. The final concentrations of DMSO and EtOH in a bath were made not higher than 0.25% v/v and not higher than 0.1% v/v, respectively. Method 1:1:
(§2) A guinea-pig of 300-450 g was exsanguinated, and the trachea was taken out. After removing fat and connective tissues, it was cut and divided into 2 to 3 spiral strips, each having a width of about 2 mm and containing 4 smooth muscle tissues. Each specimen thus prepared was suspended in an organ bath of 8 ml containing a modified Tyrode solution aerated with 95% O2 +5% CO2 at 37° C., and a load of 1 g was applied thereto. The relaxation of the muscle was recorded by a pen recorder (Yokogawa Hokushin Electric, type 3066) by means of an isotonic transducer (Nihon Kohden, TD-112S).
The composition of the modified Tyrode solution was as follows (mM):
The specimen was allowed to stand for 50-60 minutes, and was contracted with histamine dihydrochloride (100 μM). After the reaction became constant, it was washed and allowed to stand for 20-30 minutes. Indomethacin (5 μM) was added thereto, and after incubation for 30 minutes, the specimen was contracted by adding LTD4 (30 nM). After the reaction-became stable, a test sample drug was accumulatively administered. Finally, AP (1 mM) was added to achieve the maximum relaxation reaction. The result was expressed by relaxation percent relative to the relaxation by AP which was rated 100%, and a concentration to achieve 50% relaxation (EC50, μM) was measured. As a control drug, AP was used.

Experiment [2] concerns guinea-pig trachea. Put plainly: Bronchodilating effect in vitro, Method 1-2: relaxation of guinea-pig trachea strips (no LTD4 contraction). The experiment is classed as cell-based. The following applies: Cavia porcellus; Method 1-2; trachea conditioned with 1 μM isoproterenol, no LTD4; DMSO 0.2 v/v%; read-out: EC50 (concentration to achieve 50% relaxation relative to relaxation by 1 mM aminophylline). The method, then: as §1, §2
The same measuring method as method 1-1 was employed. The specimen was allowed to stand for from 60 to 90 minutes and then relaxed by an addition of 1 μM of isopreterenol. The specimen was washed, and this operation was repeated at an interval of from 30 to 40 minutes until a constant relaxation reaction was reached. Then, a test sample drug was accumulately applied to relax the specimen. Finally, 1 mM of AP was added to achieve the maximum relaxation reaction. The result was expressed by relaxation percent relative to the relaxation by AP which was rated 100%, and a concentration to achieve 50% relaxation (EC50, μM) was obtained. The final concentration of DMSO in the bath was adjusted to be 0.2 v/v%. As a control drug, AP was used.

In experiment [3] the test system is platelet. Put plainly: Anti-platelet aggregation effect in rabbits (ADP-induced). Conditions: rabbit PRP, ADP 5 to 10 μM, 37° C., read-out: IC50 (concentration at which aggregation of control sample was 50% inhibited). The experiment is classed as cell-based, rabbit. As to the method: Anti-platelet aggregation effect in rabbits
Blood was collected from the abdominal artery of Japanese white male rabbits (weight: 1.8 to 2.5 kg) into a syringe containing 1/10 volume 3.8% sodium citrate. The blood thus obtained was subjected to a centrifugation at 200×g for 7 minutes at room temperature to obtain platelet rich plasma (PRP). Furthermore, the residue was subjected to a centrifugation at 2000×g for 10 minutes to obtain platelet poor plasma (PPP). The measurement was effected by diluting PRP with PPP to 300,000/mm^3. PRP and PPP were placed in a cuvette, and the measurement range of transmittance was adjusted to 0% in the case of PRP and to 100% in the case of PPP. Thereafter, a test sample drug dissolved in 100% dimethylsulfoxide (DMSO) was added to PRP (the final concentration of DMSO: 0.25%). After incubation was effected at 37° C. at 900 rpm for 2 minutes, an aggregating agent was added to record an aggregation curve. The anti-platelet aggregation effect of the test sample drug was expressed by a concentration (IC50 : μM) at which the aggregation of control sample was 50% inhibited. The aggregating agent ADP was used at the minimum concentration (5 to 10 μM) which caused the maximum aggregation. The measurement of platelet aggregation was carried out by using NBS HEMA TRACER 601.

Experiment [4] has as its system anaphylactic bronchoconstriction mediated by endogeneously liberated SRS-A. Put plainly: Effect on anaphylactic bronchoconstriction mediated by endogeneously liberated SRS-A in passively sensitized guinea-pig. The following applies: 30 mg/kg, orally 2 hours before EA challenge; for inhibition in vivo at 30 mg/kg: Cavia porcellus, po, 2 h, read-out: Inhibition of broncho-constriction. The experiment is classed as in vivo. As to the method:
Effect on anaphylactic bronchoconstriction mediated by endogeneously liberated SRS-A in passively sensitized guinea-pig
Male guinea-pigs (350-450 g) were passively sensitized with intravenous (i.v.) injection of 0.125 ml rabbit anti-EA (egg albumin) serum (Capple Laboratories) 1 to 2 days preceding the experiment. Antigen-induced anaphylactic bronchoconstrictions mediated by endogeneously liberated SRS-A were measured by modified method of Konzett and Rossler (Arch. Exp. Path. Pharmak., 195, 71, 1940). Sensitized quinea-pigs were anaesthetized with intraperitoneal injection of urethane (1.5 g/kg). The right jugular vein was cannulated for the administration of the all agents and trachea was cannulated to record total pulmonary resistance. Guinea-pigs were artificially ventilated by a small animal respirator (Shinano, Model SN-480-7) set at a stroke volume of 4.5 ml and a rate of 50 breaths per min. The change in pulmonary resistance was measured with a pressure transducer (Nihon Kohden, Model TP-602T) connected to a T-tube on the tracheal cannula. The percentage of the maximum bronchoconstriction obtained by clamping off the trachea. Following surgical preparation, the animals were pretreated with indomethacin (2 mg/kg, 10 min), pyrilamine (2 mg/kg, 6 min) and propranolol (0.1 mg/kg, 5 min) prior to the EA challenge (0.2 mg/kg). All test compounds were administered orally 2 hours before the EA challenge. Inhibition (%) of broncho-constriction was determined as follows: Inhibition (%)=(1.0-% maximum bronchoconstriction in test/% maximum bronchoconstriction in control)×100. The maximum bronchoconstriction was 62±6% (Mean±S.E.M; n=6) and the number of test animals was 5-6.

The mark [5] stands for this setting: Oryctolagus cuniculus, Platelet.

Each structure is given as a SMILES string. Like-named read-outs stand apart in the source and are kept apart here.

As to `Cn1c(=O)c2[nH]cnc2n(C)c1=O` [Aminophylline, reference compound], the EC50 amounted to 178000 nM in experiment [1] (Cavia porcellus) and 37000 nM in experiment [2].
Turning to `COc1ccc(CNc2cn[nH]c(=O)c2Cl)cc1OCCN1CCN(Cc2ccccc2)CC1` [Compound 4], the EC50 in experiment [1] (Cavia porcellus) was determined as 1700 nM. In experiment [3] (setting [5]), the IC50 turned out to be 5200 nM.
The like results for `COc1ccc(CNc2cn[nH]c(=O)c2Br)cc1OCCN1CCN(Cc2ccccc2)CC1` [Compound 5] were, in that order, 420 nM and 4100 nM.
As to `COc1ccc(CNc2cn[nH]c(=O)c2Br)cc1OCCN1CCN(Cc2ccccc2)CC1` [Compound 6], the IC50 in experiment [3] is 3900 nM.
`COc1ccc(CNc2cn[nH]c(=O)c2Br)cc1OCCN1CCN(Cc2ccc(F)cc2)CC1` [Compound 13]: the EC50 in experiment [1] (Cavia porcellus) came to 450 nM. For the same molecule, in experiment [3] (setting [5]), the IC50 is 2900 nM.
With `COc1ccc(CNc2cn[nH]c(=O)c2Br)cc1OCCN1CCN(Cc2ccc(F)cc2)CC1` [Compound 14], the IC50 in experiment [3] came to 3500 nM.
With `COc1ccc(CNc2cn[nH]c(=O)c2Cl)cc1OCCN1CCN(Cc2ccc(F)cc2)CC1` [Compound 15], the EC50 in experiment [1] (Cavia porcellus) turned out to be 480 nM. Further, in experiment [3] (setting [5]), the IC50 stood at 4500 nM.
For the molecule `COc1ccc(CNc2cn[nH]c(=O)c2Cl)cc1OCCN1CCN(Cc2ccc(F)cc2)CC1` [Compound 16], the EC50 in experiment [2] stood at 340 nM. The IC50 in experiment [3] came to 5200 nM.
Regarding `CCn1ncc(NCc2ccc(OC)c(OCCCN3CCN(Cc4ccc(F)cc4)CC3)c2)c(Cl)c1=O` [Compound 27], the EC50 in experiment [1] (Cavia porcellus) was found to be 4000 nM.
On the same count and under the same terms, the same measure for `COc1ccc(CNc2cn[nH]c(=O)c2Cl)cc1OCC(=O)NCc1cccnc1` [Compound 31]: 6900 nM; for `COc1ccc(CNc2cn[nH]c(=O)c2Br)cc1OCC(=O)N1CCN(Cc2cccnc2)CC1` [Compound 34]: 3800 nM; for `COc1ccc(CNc2cn[nH]c(=O)c2Cl)cc1OCC(=O)N1CCN(Cc2cccnc2)CC1` [Compound 35]: 6600 nM.
As to `COc1ccc(CNc2cn[nH]c(=O)c2Cl)cc1OCC(=O)N1CCN(Cc2ccccc2)CC1` [Compound 37], the Inhibition of broncho-constriction in experiment [4] is given as 54%.
As to `COc1ccc(CNc2cn[nH]c(=O)c2Br)cc1OCC(=O)N1CCN(Cc2ccccc2)CC1` [Compound 38], the IC50 in experiment [3] (setting [5]) was found to be 1200 nM.
With `COc1ccc(CNc2cn[nH]c(=O)c2Br)cc1OCCCC(=O)N1CCN(Cc2ccccc2)CC1` [Compound 48], the EC50 amounted to 950 nM in experiment [1] (Cavia porcellus) and 210 nM in experiment [2]. The IC50 in experiment [3] (setting [5]) is 4000 nM.
Consider `COc1ccc(CNc2cn[nH]c(=O)c2Cl)cc1OCCCCCC(=O)N1CCN(Cc2ccccc2)CC1` [Compound 49], for which the EC50 in experiment [1] (Cavia porcellus) amounted to 1100 nM.
With `COc1ccc(CNc2cn[nH]c(=O)c2Cl)cc1OCC(=O)N1CCN(Cc2ccc(Cl)cc2)CC1` [Compound 51], the EC50 is 6100 nM in experiment [1] (Cavia porcellus) and 97 nM in experiment [2]. Besides, the IC50 in experiment [3] (setting [5]) came to 1100 nM.
Regarding `COc1ccc(CNc2cn[nH]c(=O)c2Cl)cc1OCC(O)CN1CCN(Cc2ccc(F)cc2)CC1` (centres unmarked) [Compound 53], in experiment [1] (Cavia porcellus), the EC50 was found to be 3100 nM.
Turning to `COc1ccc(CNc2cn[nH]c(=O)c2Cl)cc1OCCCN1CCN(Cc2ccccc2)CC1` [Compound 54], the EC50 in experiment [1] is 2400 nM; in experiment [2], 300 nM.
With `COc1ccc(CNc2cn[nH]c(=O)c2Cl)cc1OC(C)CN1CCN(Cc2ccc(F)cc2)CC1` (centres unmarked) [Compound 55], the EC50 in experiment [1] (Cavia porcellus) is 7300 nM.
Take `COc1ccc(CNc2cn[nH]c(=O)c2Cl)cc1OCC(=O)N1CCN(Cc2ccc3ccccc3n2)CC1` [Compound 61]: the EC50 in experiment [2] was 310 nM.
The same measure, in the same setting: the figure for `COc1ccc(CNc2cn[nH]c(=O)c2Cl)cc1OCC(=O)N1CCC(Cc2ccccc2)CC1` [Compound 62] is 50 nM; for `CCOc1n[nH]c(=O)c(Cl)c1NCc1ccc(OC)c(OCCN2CCN(Cc3ccc(F)cc3)CC2)c1` [Compound 65] it is 360 nM.
For `CCOc1n[nH]c(=O)c(Cl)c1NCc1ccc(OC)c(OCC(=O)N2CCN(Cc3ccccc3)CC2)c1` [Compound 66], the EC50 was determined as 180 nM in experiment [1] (Cavia porcellus) and 67 nM in experiment [2].
With `CCOc1n[nH]c(=O)c(Cl)c1NCc1ccc(OC)c(OCC(C)(C)C(=O)N2CCN(Cc3ccc(F)cc3)CC2)c1` [Compound 69], the EC50 in experiment [2] amounted to 430 nM.
Still for that read-out and setting: the same measure for `CCOc1n[nH]c(=O)c(Cl)c1NCc1ccc(OC)c(OCCCN2CCN(Cc3ccc4ccccc4n3)CC2)c1` [Compound 71]: 250 nM; for `CCOc1n[nH]c(=O)c(Cl)c1NCc1ccc(OC)c(OCC(=O)N2CCN(Cc3nc4ccccc4n3Cc3ccc(F)cc3)CC2)c1` [Compound 73]: 490 nM.
As for `CCOc1n[nH]c(=O)c(Cl)c1NCc1ccc(OC)c(OCC(=O)N2CCC(Cc3ccccc3)CC2)c1` [Compound 74], the EC50 in experiment [2] was 46 nM. Also, in experiment [4], the inhibition in vivo at 30 mg/kg was determined as 30%.
On to `CCOc1n[nH]c(=O)c(Cl)c1NCc1ccc(OC)c(OCCN2CCC(Cc3ccccc3)CC2)c1` [Compound 75], for which the EC50 in experiment [2] is 400 nM.
With `COc1ccc(CNc2c(OC(C)C)n[nH]c(=O)c2Cl)cc1OCC(=O)N1CCN(Cc2ccc(F)cc2)CC1` [Compound 76], the values for the EC50 in experiment [1] (Cavia porcellus) and in experiment [2] were 690 nM and 48 nM, respectively.
With `COc1ccc(CNc2c(OC(C)C)n[nH]c(=O)c2Cl)cc1OCC(O)CN1CCN(Cc2ccc(NC=O)cc2)CC1` (centres unmarked) [Compound 77], in experiment [2], the EC50 amounted to 57 nM. For the same molecule, the inhibition in vivo at 30 mg/kg in experiment [4] came to 65%.
Consider `COc1ccc(CNc2c(OC(C)C)n[nH]c(=O)c2Cl)cc1OCC(=O)N1CCN(Cc2ccc(NC=O)cc2)CC1` [Compound 79], for which the EC50 in experiment [2] turned out to be 41 nM.
